The target in this experiment is T1, Serotonin receptor 5ht1b (Homo sapiens, UniProt P28222).
T1 construct: expressed in transfected cells
Put plainly: PDSP primary radioligand binding assay. To be noted: compound 10 μM.

SMILES strings stand for the structures. Structures can show the parent of a compound that is named as a salt. Where only a bound is given, the exact number is not on record here.

T1 sequence (P28222 whole entry): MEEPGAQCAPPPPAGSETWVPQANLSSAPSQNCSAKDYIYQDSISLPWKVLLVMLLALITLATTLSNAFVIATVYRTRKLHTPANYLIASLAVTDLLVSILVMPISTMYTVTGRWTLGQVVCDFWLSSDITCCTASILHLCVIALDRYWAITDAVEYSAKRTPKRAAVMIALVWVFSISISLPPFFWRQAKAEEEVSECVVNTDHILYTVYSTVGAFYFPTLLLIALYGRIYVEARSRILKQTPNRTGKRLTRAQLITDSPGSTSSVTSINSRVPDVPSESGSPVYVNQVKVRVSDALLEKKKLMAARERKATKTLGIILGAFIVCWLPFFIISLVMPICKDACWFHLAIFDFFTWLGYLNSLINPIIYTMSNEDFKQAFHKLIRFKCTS

By inhibition is commonly meant the relative decrease from the control value, in per cent. Consider `CCCOc1cc2c(cn1)[nH]c1ccncc12` [Compound 2, 8-Propoxypyridino[4′,3′-5,4]pyrrolo[3,2-c]pyridine hydrochloride], for which, where the note is “n=4, hydrochloride, 10 µM”, the “mean percentage inhibition, Serotonin receptor 5ht1b” value was 47%. In addition, for the setting “n=4, read-out: mean percentage inhibition, Serotonin receptor 5ht1b”, the inhibition at 10 µM is under 50%.

(Values after patent US8268854B2, “Aza-beta-carbolines and methods of using same” (The UWM Research Foundation, Inc., priority 2008, dated 2012).)
